# Assay results reported in patent publication US5686423A, “Di-and tri-peptide mimetic compounds for Parkinson's disease” (Department of Health, the Executive Yuan, Republic of China, priority 1996, dated 1997).
# Residues, ends and D or L forms follow the SMILES beside them.
# Columns and labels:
# [1] = 37° C., 2 minutes of incubation
# Procedure: Mucosa suspension was prepared from the intestine of male Wistar rats according to the method of Hu et al. [Pharm. […] After abdominal incision the intestinal segment between the beginning of the jejunum and the end of the ileum was removed and everted to let the interior exposed. The mucosal layer was washed with normal saline and then scraped with glass microscope slides. The scraping was collected, diluted 1:9 (v/v) with ice cold isotonic sucrose solution, and ultrasonicated for 200 seconds. The suspension was centrifuged at 2500 rpm for 5 minutes. The supernatant suspension was stored in an ice bath before subjected to degradation study. All the stability studies were conducted right after the mucosa suspension was prepared. One hundred microliter of a methanolic solution of the test compound (1 mg/mL) was diluted with 2.4 mL of an isotonic mannitol buffer solution (pH=6.5) as the stock solution. One hundred microliter of the stock solution was mixed with equal volume of the mucosal suspension. The mixture was incubated in a 37° C. water bath and subjected to sampling at time intervals between zero to 60 minutes. Two hundred microliter of each sampled solution was denatured with MeOH (0.8 mL) and centrifuged at 14000 rpm for 5 minutes. Twenty to one hundred microliters each of the solution was subjected to HPLC assay on a Lichrospher 100 RP-18 column (E. Merck, 5 μm, 250×3.9 mm). […]
# [2] = rat jejunal perfusion, perfusate 0.1 mM; for plasma conc. (mean ± s.e.m): blood drawn after 90 min perfusion
# Procedure: The intestinal absorption of the prodrugs was then investigated by measuring the plasma concentration in rats upon in situ single-pass rat jejunal perfusion, and by determining the fraction of absorption in rabbits with data obtained from single-dose intra-artery injection and oral administration.
# Perfusion solutions containing 5 mM KCl, 100 mM NaCl, 10 mM MES, 6 mM D-glucose, the testing compound, and 0.02% ascorbic acid as an anti-oxidant, were adjusted to pH 6 with NaOH. Osmolarity, measured by a Wescor 5500 vapor pressure osmometer (Wescor Company, Logan, Utah, U.S.A.), was adjusted to 300±10 mOsm/kg using sodium chloride. […] In order to prevent test compounds from oxidation, perfusion solutions were freshly prepared with nitrogen gas bubbled through for 10 min before each perfusion experiment.
# Male Wistar Rats were fasted overnight (16-20 h) prior to anesthesia induced by i.m. injection of urethane (1.5 g/kg body weight). Following induction of anesthesia, rats were put on a heating pat to maintain body temperature. A midline longitudinal incision was made and a 5 to 10 cm jejunal segment was cannulated at the distal end to drain perfusates into collecting tubes. The entire surgical area was then covered with parafilm to minimize temperature reduction through evaporation. Tubing and syringes were covered with aluminum foil to retard the oxidation of testing compounds. Perfusion solution was pumped through the jejunal segment at a flow rate of 0.2 mL/min by a syringe pump (Stoelting, KD Scientific, U.S.A.). The jejunal segment was prewashed initially with drug-free buffer for 10 min and then pumped with test solution. Outlet tubing samples were collected every 10 min for 6 collection periods after water and solute transport reached steady-state. After 90 min perfusion, blood sample (1-2 mL) was drawn by cardiac puncture. The blood samples were centrifuged at 3000 rpm for 10 min, the plasma were separated and stored at -20° C. before analysis. The samples were filtered through 0.2 μm membrane filters before injecting into HPLC system.
# Assays of L-dopa and test compounds were performed on HPLC consisting an autosampler (Model 717, Waters, Millipore, Milford, Mass., U.S.A.), a solvent delivery pump (Model 600E, Waters), a tunable absorbence detector (Model 484 or 486, Waters), and a PC 486 computer with a chromatography manager software (Millennium 2010, Millipore). L-Dopa from the perfusate was assayed on a Spheri 5RP-18 column (ABI, 5 μm, 250×4.6 mm) at flow rate of 1.0 mL/min with mobile phase comprising MeOH:0.05M NH4 H2 PO4 buffer (pH 4.6) containing 0.02M sodium 1-pentanesulfonate=10:90 (v/v). […] Standards were injected during each assay. Linearity of standard peak area ratios was validated. Numerical computation on data were performed on Statworks and are represented as mean±standard error of mean (s.e.m) for n experiments. Treatment differences were evaluated by t test.
# [3] = tested on: 6-hydroxydopamine-lesioned male Wistar rats; test: Rotational behavior of nigrostriatal-lesioned rats elicited by (+)-methamphetamine; type: in vivo, rat; settings: for rotation: control saline 552 ± 47
# Text: Anti-Parkinsonism effect was determine by virtue of measuring the change in rotational behavior of 6-hydroxydopamine-lesioned male Wistar rats [Hudson J. L.; Levin. D. R.; Hoffer, B. J. A Sixteen-Channel Automated Rotometer System For Reliable Measurement of Turning Behavior in 6-Hydroxydopamine Lesioned and Transplanted Rats. Cell Transplantation 1993, 2, 507-514; Hudson J. L, Van Horne C. G.; Stromberg I.; Brock. S.; Clayton, J.; Masserano, J.; Hoffer, B. J.; Gerhardt, G. A. Correlation of Apomorphine and Amphetamine Induced Turning With Nigrostriatal Dopamine Content in Unilateral 6-Hydroxydopamine Lesioned Rats. Brain Res. 1993, 626, 167-174].
# Twenty male Wistar rats weighing 150-175 grams were used. Within a 36 h window, all rats were lesioned by the same investigator using the following procedure. Surgical anesthesia was produced by i.p. injection of 30 mg/kg of sodium pentobarbtal. The animals were placed in a stereotaxic frame and the skin over the skull was incised and reflected. Bregma was used as the coordinate origin and a burr-hole was placed in the cranium over the injection site. After a small-needle puncture of the dura and lowering into the brain parenchyma, a solution of […] of 6-hydroxydopamine HCl was injected using a microliter syringe and a 26 gauge dome-tipped needle (AP-4.4 mm, ML 1.3 mm. DV -7.8 mm). The needle was removed after a 1 min delay and the wound was closed. Convalescence occurred in home cages with food and water ad libitum for the duration of the experiment.
# On each testing day, the rats were placed into rotometer bowls and were allowed to acclimatize for 10 min. They then received a subcutaneous dose of (+)-methamphetamine (4 mg/kg in vehicle) and were allowed to move within the bowls for at least 60 min, or until they stopped turning. The rats were returned to the home cages after the experiment until next testing session.
# The degree of dopamine depletion was evaluated by monthly testing of rotational behavior in a multichannel rotometer system after methamphetamine (4 mg/Kg, s.c.) injection.
# [4] = tested on: vas deferences; settings: continuous perfusion of 1 mg/mL for one min
# Procedure: (§1) Each experiment was repeated at least three times. The mean responses before and after drug treatment were compared by means of Student's t test, with p<0.05, indicating significance. The contractile force of both pulmonary artery and vas deferences was elicited after continuous perfusion of dopamine (1 mg/mL) for one min.
# (§2) Male guinea pigs (250-350 g) were stunned and bled. The vas deferences and pulmonary artery were isolated. A piece of the smooth muscle (about 1 mm wide and 7 mm long) was dissected. The isolated part was mounted vertically on an organ bath (1 mL capacity), kept at 35° C. and superfused with a physiological solution at a constant rate of about 2 mL /min (35° C.). The normal physiological solution had the following composition: NaCl (117 mM), KCl (5.9 mM), CaCl2 (2.4 mM), MgCl2 (1.2 mM), D-glucose (11.8 mM) and Tris 20 (pH 7.4 at 35° C.), aerated with 100% oxygen. Drugs tested were perfused for one min and then superfused with normal physiological solution or otherwise indicated. Tension was recorded isometrically by means of a Grass FT03 tranducer connected to a Grass model 7E polygraph or by a Gould UC2 transducer connected to a Gould 2200S recorder. Each experiment was repeated at least three times with different preparations.
# [5] = tested on: pulmonary artery; settings: continuous perfusion of 1 mg/mL for one min
# Procedure: as §1, §2
# [6] = cited from earlier work
# [7] = Single dose oral and intra-artery bioavailability study in rabbits; settings: oral vs intra-artery, 10 mg/Kg, six rabbits, mean ± s.e.m.
# Procedure: Prodrug 1a was subjected to single dose oral and intra-artery (i.a.) administrations on 6 fasted New Zealand white rabbits for oral bioavailability study.
# Single intra-artery dose of prodrug 1a or the parent drug was administered in six fasted New Zealand white rabbits, weighting 2.5-3.0 Kg, via ear artery. Blood samples were withdrawn with heparinized syringes from the contralateral artery at time intervals ranged from 1 min to 3.5 h. Freshly drawn heparinized blood was treated with extraction buffer (1 mol of Tris and 20 g of EDTA per liter, pH 8.6) and then extracted with alumina (100 g). The alumina was extracted with acidic buffer and the extract subjected to HPLC analysis.
# After wash-out period, the same rabbits were used for single oral dose administration of prodrug la with a feeding tube. […] Prodrug 1a and dihydroxybenzylamine,used as an internal standard, were detected with electrochemical detector at 0.750 V of oxidation potential. The maximal plasma concentration (Cmax) and the time to the maximal plasma concentration (tmax) were determined. The area under the plasma concentration-time profile (AUC) and the terminal half-life (t1/2) were calculated. Fraction of absorption was calculated from the pharmacokinetic parameters (tmax, Cmax, AUC, t1/2) obtained from oral and intra-artery administrations.
# [8] = i.p. 1-2 hours prior to (+)-methamphetamine
compound,measurement,setting,value
NCC(=O)N[C@@H](Cc1ccccc1)C(=O)O [L-glycine-L-phenylalanine] (H-Gly-Phe-OH),fraction degraded in rat intestinal mucosa suspension,[1],81%
D-Phenylglycine-L-serine-L-dopa [2a],plasma conc. (mean ± s.e.m),[2],8.49 ± 1.36
D-p-hydroxyphenylglycine-L-serine-L-dopa [2b],"plasma concentration, fold higher than that of L-dopa",[2],60-100 fold
same,plasma conc. (mean ± s.e.m),[2],62.1 ± 3.53
D-p-hydroxyphenylglycine-L-proline-L-dopa [compound 2d],rotation,"[3]; 9.6 mg/kg i.p., (+)-methamphetamine injected 1 h after treatment",223 ± 95 turns/h
same,rotation,"[3]; 9.6 mg/kg i.p., (+)-methamphetamine injected 2 h after treatment",247 ± 67 turns/h
same,anti-rotation activity compared with L-dopa (in words),[3]; [8],slightly higher than that of L-dopa
same,effect on (+)-methamphetamine-induced rotation (in words),[3]; [8],significantly prohibited
NCCc1ccc(O)c(O)c1 [dopamine],contraction of vas deferences (resting tension),[4],elicited
same,contraction of pulmonary artery (resting tension),[5],elicited
"NC(Cc1ccc(O)c(O)c1)C(=O)O [L-dopa, 2-amino-3-(3,4-dihydroxyphenyl)propanoic acid]",rotation,"[3]; 4.2 mg/kg i.p., (+)-methamphetamine injected 1 h after treatment",287 ± 86 turns/h
same,AUCCSF /AUCplasma,"[6]; Parkinson disease, literature (Olanow et al. 1991)",12/100
same,oral bioavailability,[6]; at up to 1000 mg/day,33%
D-p-hydroxyphenylglycine-L-dopa [1b],plasma conc. (mean ± s.e.m),[2],0.60 ± 0.01
L-dopa-D-phenylglycine [1c],"plasma concentration, fold higher than that of L-dopa",[2],60-100 fold
same,plasma conc. (mean ± s.e.m),[2],104.00 ± 12.98
D-phenylglycine-L-dopa [compound 1a],fraction of absorption,[7],76 ± 24%
same,"plasma concentration, fold higher than that of L-dopa",[2],60-100 fold
same,plasma conc. (mean ± s.e.m),[2],64.65 ± 5.45
